# In US20240197876A1, “METHODS TO DETERMINE TREATMENT EFFICACY WITH GAMMA-DELTA T CELLS” (THE TRUSTEES OF THE UNIVERSITY OF PENNSYLVANIA, priority 2021, published 2024):
# Entries after “also recorded” stand apart in the source; their conditions may differ.
# Legend:
# Vδ2 T cells = assay: Vδ2 T cell expansion from cultured PBMCs (γδTCR activator with or without TLR agonist), FACS; type: cell-based, human; details: for co-stimulatory effect on IPP induced Vδ2 T cell expansion: IPP 5 μg/ml plus TLR agonist, day 5 or 7
# Method: Primary cells and cell lines: PBMCs and monocytes were obtained from Human Immunology Core at the University of Pennsylvania, which were obtained from healthy donors-Using informed consent and approved by Institutional Review Board. For γδ T cell expansion, PBMCs were cultured with RPMI1640 media supplemented with 10% FBS (HyClone, GE Healthcare, UT, USA), 100 U/ml Penicillin-Streptomycin, 2 mM L-Glutamine, 1/1000 2-Mercaptoethanol (2-Me) (Gibco, ThermoFisher Scientific, MA, USA) (or without 2-Me as indicated) and 200 units/ml of Recombinant Human IL-2 (PeproTech, NJ, USA) in 24-well microplates, new media added and supplemented every other day. TCR-γδ T cells were expanded in 24-well tissue culture treated microplates that were coated with mouse-monoclonal Anti-Pan-TCR γδ antibody (1.0 ug/ml in PBS; IMMU510, IM1349, Beckman). For naive γδT cell isolation, PBMCs were purified using a commercial Human TCR γ/δ T Cell Isolation Kit (Miltenyi Biotec, Germany). […] Human melanoma cell lines A375, A2058, WM9, 903 were obtained from Meenhard Herlyn's laboratory (The Wistar Institute, Philadelphia, PA, USA) and they were routinely tested for mycoplasma and DNA fingerprinted (Liu, et al., 2018, Nat Commun 9: 5426). Lung cancer cell line H1975, Colon cancer cell line HT-29, Gastric cancer cell line NCI-N87 were purchased from ATCC. Daudi cells were obtained from Andrei Thomas-Tikhonenko Lab at the University of Pennsylvania and Children's Hospital of Philadelphia, K562 cells were obtained from Michael Milone Lab at the University of Pennsylvania. BRAFi and MEKi combination therapy resistant (CR) cell lines WM9-CR and A2058-CR were generated as described before (Lu, et al., 2017, Nature 550: 133-136).
# Flow cytometry: PBMCs and γδ T cell phenotypes were analyzed by flow cytometry. Briefly, single-cell suspensions were surface-stained for 30 min at 4° C. in dark, and […] staining was performed for 60 min after fixation and permeabilization using a True-Nuclear™ Transcription Factor Buffer Set (BioLegend, CA, USA). CFSE Cell Proliferation Kit for flow cytometry was purchased from Invitrogen (ThermoFisher Scientific, MA, USA). Fluorescein-conjugated antibodies were used. Data were acquired on LSRA/B or Fortessa B flow cytometers (BD Biosciences, NJ, USA) at Flow Cytometry and Cell Sorting Resource Laboratory at the University of Pennsylvania and analyzed with FlowJo software (Tree Star, Ashland, OR).
# melanoma cells = assay: LDH release cytotoxicity of expanded γδ T cells to melanoma cell lines; type: cell-based, human; details: E:T 5:1
# Method: Cytotoxicity: Cytotoxicity of γδ T cells against melanoma cells was measured by lactate dehydrogenase (LDH) release using the CytoTox 96® Non-Radioactive Cytotoxicity Assay kit (G1780, Promega, WI, USA) as described (Zhu, et al., 2016, Molecular Medicine 22: 737-746). Briefly, Melanoma cells were seeded at 4×10^4 cells/well in 50 μl standard growth medium in 96-well plates, while γδ T cells were seeded at effective target ratio E:T=5:1 in the same volume of PBMC culture media at the same time. After the indicated time, plates were spin down briefly and 50 μl supernatants were then harvested for further analysis. Absorbance at 490 nm was read using a BioTek Synergy HT reader (BioTek Instruments, VT, USA) after LDH activity detection, the percentage of cytotoxicity was calculated as (Experimental-Effector Spontaneous-Target Spontaneous)/(Target Maximum-Target Spontaneous)×100.
# [1] = system: gastric, colon and lung cancer cells; assay: LDH release cytotoxicity of expanded γδ T cells to epithelial cancer cell lines; type: cell-based, human; details: E:T 5:1; resiquimod 10 μg/ml
# γδ T cells = assay: Expansion of γδ T cells ex vivo from PBMC with ZOL or anti-γδTCR Ab plus IL-2; type: cell-based, human
# Method: Expansion of γδ T cells ex vivo. PBMC were plated at 2×10^6 cells per well in 24-well flat-bottomed plates at 37° C. in a humidified atmosphere of 5% CO2. The standard culture medium contains RPMI 1640 (Gibco), containing 10% FBS (Gibco), 2 mM L-glutamine (Gibco), 100 U/ml penicillin (Gibco), streptomycin (Gibco) and 200 IU/ml IL-2 (PeproTech, Rocky Hill, NJ) (Castella et al., Nature communications. 2017; 8:15663.) 5 μM zoledronic acid (Sigma-Aldrich, St. Louis, MO USA) was added into the culture medium at the first day and the medium containing IL-2 changed every two days. In some cases, 24-well plates were pre-coated with 0.5 μg/ml anti-γδTCR Ab (Immunotech, Beckman Coulter, Fullerton, CA) and then PBMCs were added to the anti-γδTCR Ab-coated wells and cultured in the standard culture medium mentioned above. The viability and cell number of γδ T cells were evaluated by the trypan blue staining assay, and the percentage of γδ T cells counted by flow cytometry (Ryan et al., Proc NatlAcadSci USA. 2016; 113(50):14378-83).
# Antibodies and flow cytometry analyses. […] Samples were acquired using a LSR-A flow cytometer (BD Biosciences, Baltimore, MD) and analyzed using FlowJo software (Tree Star Inc., Ashland, OR).
# Vδ2 T cells in Hu-Mice = assay: Vδ2 T cell expansion from PBMCs of humanized mice; type: cell-based; details: PBMCs from four Hu-Mice, 10 days
# Description: Humanized Mice (Hu-Mice): Humanized mice were generated at the Wistar Institute as described (Somasundaram, et al., 2021, Nat Commun 12: 346). Briefly, the humanized mouse model is developed by reconstituting immunodeficient NSG mice with fetal liver-derived CD34+ human hematopoietic stem cells, grafted intravenously, and autologous fetal thymus chunks, grafted under the renal capsule, to promote rapid human T-cell differentiation.
# NSG mice engrafted with human hematopoietic stem (CD34+) cells or peripheral blood leukocytes (Hu-Mice) are a useful tool to study immunotherapy (Somasundaram, et al., 2021, Nat Commun 12: 346). However, it was previously unclear whether these mice have functional human γδ T cells. As shown herein, CD3^+VS2^+ T cells are present in the PBMCs of Hu-Mice (FIG. 32A). PBMCs from four Hu-Mice were cultured using human PBMCs culture media and were stimulated with IPP plus resiquimod, or ZOL, for 10 days.
# purified γδ T cells = assay: CFSE proliferation of purified naive γδ T cells; type: cell-based, human; details: ZOL+PBMCs group, same-donor PBMCs not labeled
# Method: Primary cells and cell lines: PBMCs and monocytes were obtained from Human Immunology Core at the University of Pennsylvania, which were obtained from healthy donors-Using informed consent and approved by Institutional Review Board. For γδ T cell expansion, PBMCs were cultured with RPMI1640 media supplemented with 10% FBS (HyClone, GE Healthcare, UT, USA), 100 U/ml Penicillin-Streptomycin, 2 mM L-Glutamine, 1/1000 2-Mercaptoethanol (2-Me) (Gibco, ThermoFisher Scientific, MA, USA) (or without 2-Me as indicated) and 200 units/ml of Recombinant Human IL-2 (PeproTech, NJ, USA) in 24-well microplates, new media added and supplemented every other day. TCR-γδ T cells were expanded in 24-well tissue culture treated microplates that were coated with mouse-monoclonal Anti-Pan-TCR γδ antibody (1.0 ug/ml in PBS; IMMU510, IM1349, Beckman). For naive γδT cell isolation, PBMCs were purified using a commercial Human TCR γ/δ T Cell Isolation Kit (Miltenyi Biotec, Germany). Purified naive γδ T cells routinely exceeded >95% […] by flow cytometry. […]
# Flow cytometry: PBMCs and γδ T cell phenotypes were analyzed by flow cytometry. […] Data were acquired on LSRA/B or Fortessa B flow cytometers (BD Biosciences, NJ, USA) at Flow Cytometry and Cell Sorting Resource Laboratory at the University of Pennsylvania and analyzed with FlowJo software (Tree Star, Ashland, OR).
# [2] = system: UACC903 and A2058 melanoma cells; assay: Cytotoxicity and 3-D tumor spheroid assays with γδ T cells expanded by ZOL or anti-γδTCR antibody; type: cell-based, human
# Method: Cytotoxicity assays. The CytoTox 96® Non-Radioactive Cytotoxicity Assay (Promega, Madison, WI) was applied to measure the cytotoxicity of expanded Vγ9Vδ2 T cells. In this respect, A375 (2×10^4 cells/well), A2058 (2×10^4 cells/well), and 903 (2×10^4 cells/well) melanoma cells were used as target cells and seeded into a 96-round well plate, and expanded Vγ9Vδ2 T cells (1×10^5 cells/well) served as effector cells were directly added to individual wells incubated overnight. The supernatants were collected and the lactate dehydrogenase activity was detected. Controls for spontaneous lactate dehydrogenase release from effector and target cells, the target maximum release, as well as the culture medium background were measured simultaneously (Zhou et al., Cell Mol Immunol. 2012; 9(1):34-44).
# 3-D Spheroid Assays. The 96-well plate was pre-coated with 50 μL 1.5% Agarose (LONZA, Rockland, ME). Melanoma cells (A2058 and UACC 903 cells) were labeled with CellTracker™ Orange CMRA Dye (Thermo Fisher Scientific, Waltham, MA) and seeded at 2×10^4 cells/well and allowed to form spheroids over 48 hours. […] Infiltrated spheroids were analyzed at 48 h using confocal microscope (Leica, Wetzlar, Germany). Spheroids were divided into single cells and CFSE+ cells infiltrating the spheroids was counted by flow cytometry.
# Method for monocytes: FIG. 30C provides data for purified monocytes cultured with resiquimod for 24 h with indicated concentration, and the viability and mortality were detected with Annexin V/7-AAD apoptosis kit and flow cytometry.
smiles,measurement,setting,value
CC(C)Cn1cnc2c(N)nc3ccccc3c21 [imiquimod],co-stimulatory effect on IPP induced Vδ2 T cell expansion,Vδ2 T cells; PBMCs,promoted Vδ2 T cell expansion
CCOCc1nc2c(N)nc3ccccc3c2n1CC(C)(C)O [resiquimod],apoptosis and cell death of monocytes,monocytes,induced apoptosis and cell death in some monocytes
same,efficacy and cytotoxicity compared among three TLR7/8 agonists,"Vδ2 T cells; co-stimulation with IPP, PBMCs, day 7",best efficacy with the least cytotoxicity
same,cytotoxic effect of γδ T cells expanded using pan-anti-γδTCR antibody to melanoma cell lines,"melanoma cells; A375, 12051u, 903, A2058, WM9, A2058CR, WM9CR, resiquimod 10 μg/ml",significantly enhanced the cytotoxic effect
same,cytotoxic effect of γδ T cells expanded using IPP,"melanoma cells; A375 and A2058, about 13 days expansion with or without resiquimod",significantly enhanced the cytotoxic effect
same,cytotoxic effect of γδ T cells expanded using pan-anti-γδTCR antibody to epithelial cancer cells,[1],significantly enhanced the cytotoxic effect
CCNCc1nc2c(N)nc3ccccc3c2n1CC(C)(C)O [gardiquimod],co-stimulatory effect on IPP induced Vδ2 T cell expansion,Vδ2 T cells; PBMCs,promoted Vδ2 T cell expansion
OCCS [2-mercaptoethanol],effect of antioxidant in the culture medium on Vδ2 T cell expansion,"Vδ2 T cells; IPP plus resiquimod, 8 days, medium with or without 2-Me",did not affect Vδ2 T cell expansion
CCC(=O)N1CCN(c2ccc(-n3c(=O)ccc4cnc5ccc(-c6cnc7ccccc7c6)cc5c43)cc2C(F)(F)F)CC1 [torin1],expansion of Vδ2 T cells induced by IPP in presence of mTOR inhibitor,Vδ2 T cells; PBMCs with IPP,significantly reduced
same,"inhibition of Vδ2 T cell expansion by IPP plus resiquimod, relative to IPP",Vδ2 T cells; PBMCs with IPP plus resiquimod and mTOR inhibitor,more prominent
"O=P(O)(O)C(O)(Cn1ccnc1)P(=O)(O)O [ZOL, zoledronate]",γδ T cell subsets expanded,γδ T cells; PBMCs expanded by ZOL or anti-TCRγδ Ab,preferentially expanded Vδ2 cells
same,"γδ T cell expansion, ZOL compared with anti-γδTCR antibody","γδ T cells; PBMCs of healthy donors, 10 day expansion with IL-2",significantly better than that of anti-γδT TCR antibody; also recorded: better expansion of γδ T cells than anti-γδTCR antibody
same,expansion of peripheral Vδ2 T cells in Hu-Mice,Vδ2 T cells in Hu-Mice,approximately a thousand-fold expansion
same,Vδ2 T cell (CFSE+) proliferation when PBMCs were added to the culture system,purified γδ T cells,regained the capability of inducing Vδ2 T cells (CFSE+) proliferation
same,cytotoxicity of tumor spheroid assays,[2],comparable results
NC(=O)[C@H]1CCS[C@@H]2C[C@]3(CCCN3C(=O)Cc3ccc(NC(=O)COc4ccc(Cl)cc4Cl)cc3)C(=O)N12 [ST2825],effect of MyD88 inhibition on resiquimod co-stimulation of Vδ2 T cell expansion,Vδ2 T cells; PBMCs with IPP or IPP plus resiquimod,eliminated the co-stimulatory function of resiquimod
